Reference: article PMC9898036, “VIP152 is a selective CDK9 inhibitor with pre-clinical in vitro and in vivo efficacy in chronic lymphocytic leukemia” (Leukemia, 2022)

Legend:
[1] = target: CDK9 in complex with Cyclin T2 (Homo sapiens, UniProt P50750); assay: NanoBRET target engagement assay (HEK293); format: cell-based
Histamine H1 = Histamine H1 (Homo sapiens, UniProt P35367); assay: Eurofins Diversity Panel; format: binding; conditions: hum, Conc. 10 μM
Melatonin MT1 = Melatonin MT1 (Homo sapiens, UniProt P48039); assay: Eurofins Diversity Panel; format: binding; conditions: hum, Conc. 10 μM
Opiate δ1 (OP1, DOP) = Opiate δ1 (OP1, DOP) (Homo sapiens, UniProt P41143); assay: Eurofins Diversity Panel; format: binding; conditions: hum, Conc. 10 μM
Opiate δ1 (OP1, DOP), sequence (P41143 whole entry): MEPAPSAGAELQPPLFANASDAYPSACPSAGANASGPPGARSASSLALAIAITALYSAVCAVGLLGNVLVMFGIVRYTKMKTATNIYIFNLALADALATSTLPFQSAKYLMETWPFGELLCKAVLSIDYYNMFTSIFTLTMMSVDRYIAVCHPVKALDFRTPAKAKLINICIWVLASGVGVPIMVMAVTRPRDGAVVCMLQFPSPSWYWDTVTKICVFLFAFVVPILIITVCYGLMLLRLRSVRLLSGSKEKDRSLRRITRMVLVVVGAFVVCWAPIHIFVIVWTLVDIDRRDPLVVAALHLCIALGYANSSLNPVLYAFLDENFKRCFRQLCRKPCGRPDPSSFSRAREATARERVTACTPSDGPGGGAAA

Prostanoid EP4 = Prostanoid EP4 (Homo sapiens, UniProt P35408); assay: Eurofins Diversity Panel; format: binding; conditions: hum, Conc. 10 μM
Rolipram = assay: Eurofins Diversity Panel; format: binding; conditions: rat, Conc. 10 μM
SGK3 = SGK3 (Homo sapiens, UniProt Q96BR1); assay: KINOMEscan: SGK3; format: binding; conditions: 100 nM, read-out: Percent Control
SRMS = SRMS (Homo sapiens, UniProt Q9H3Y6); assay: KINOMEscan: SRMS; format: binding; conditions: 100 nM, read-out: Percent Control
TEC = TEC (Homo sapiens, UniProt P42680); assay: KINOMEscan: TEC; format: binding; conditions: 100 nM, read-out: Percent Control
TNK1 = TNK1 (Homo sapiens, UniProt Q13470); assay: KINOMEscan: TNK1; format: binding; conditions: 100 nM, read-out: Percent Control
[2] = target: TYK2(JH1domain-catalytic) (Homo sapiens, UniProt P29597); assay: KINOMEscan: TYK2(JH1domain-catalytic); format: binding; conditions: 100 nM, read-out: Percent Control
VRK2 = VRK2 (Homo sapiens, UniProt Q86Y07); assay: KINOMEscan: VRK2; format: binding; conditions: 100 nM, read-out: Percent Control
WNK3 = WNK3 (Homo sapiens, UniProt Q9BYP7); assay: KINOMEscan: WNK3; format: binding; conditions: 100 nM, read-out: Percent Control
YANK1 = YANK1 (Homo sapiens, UniProt Q8WU08); assay: KINOMEscan: YANK1; format: binding; conditions: 100 nM, read-out: Percent Control
ALK(C1156Y) = ALK(C1156Y) (Homo sapiens, UniProt Q9UM73, C1156Y); assay: KINOMEscan: ALK(C1156Y); format: binding; conditions: 1000 nM, read-out: Percent Control
ALK(C1156Y), sequence (Q9UM73 19-1620 C1156Y): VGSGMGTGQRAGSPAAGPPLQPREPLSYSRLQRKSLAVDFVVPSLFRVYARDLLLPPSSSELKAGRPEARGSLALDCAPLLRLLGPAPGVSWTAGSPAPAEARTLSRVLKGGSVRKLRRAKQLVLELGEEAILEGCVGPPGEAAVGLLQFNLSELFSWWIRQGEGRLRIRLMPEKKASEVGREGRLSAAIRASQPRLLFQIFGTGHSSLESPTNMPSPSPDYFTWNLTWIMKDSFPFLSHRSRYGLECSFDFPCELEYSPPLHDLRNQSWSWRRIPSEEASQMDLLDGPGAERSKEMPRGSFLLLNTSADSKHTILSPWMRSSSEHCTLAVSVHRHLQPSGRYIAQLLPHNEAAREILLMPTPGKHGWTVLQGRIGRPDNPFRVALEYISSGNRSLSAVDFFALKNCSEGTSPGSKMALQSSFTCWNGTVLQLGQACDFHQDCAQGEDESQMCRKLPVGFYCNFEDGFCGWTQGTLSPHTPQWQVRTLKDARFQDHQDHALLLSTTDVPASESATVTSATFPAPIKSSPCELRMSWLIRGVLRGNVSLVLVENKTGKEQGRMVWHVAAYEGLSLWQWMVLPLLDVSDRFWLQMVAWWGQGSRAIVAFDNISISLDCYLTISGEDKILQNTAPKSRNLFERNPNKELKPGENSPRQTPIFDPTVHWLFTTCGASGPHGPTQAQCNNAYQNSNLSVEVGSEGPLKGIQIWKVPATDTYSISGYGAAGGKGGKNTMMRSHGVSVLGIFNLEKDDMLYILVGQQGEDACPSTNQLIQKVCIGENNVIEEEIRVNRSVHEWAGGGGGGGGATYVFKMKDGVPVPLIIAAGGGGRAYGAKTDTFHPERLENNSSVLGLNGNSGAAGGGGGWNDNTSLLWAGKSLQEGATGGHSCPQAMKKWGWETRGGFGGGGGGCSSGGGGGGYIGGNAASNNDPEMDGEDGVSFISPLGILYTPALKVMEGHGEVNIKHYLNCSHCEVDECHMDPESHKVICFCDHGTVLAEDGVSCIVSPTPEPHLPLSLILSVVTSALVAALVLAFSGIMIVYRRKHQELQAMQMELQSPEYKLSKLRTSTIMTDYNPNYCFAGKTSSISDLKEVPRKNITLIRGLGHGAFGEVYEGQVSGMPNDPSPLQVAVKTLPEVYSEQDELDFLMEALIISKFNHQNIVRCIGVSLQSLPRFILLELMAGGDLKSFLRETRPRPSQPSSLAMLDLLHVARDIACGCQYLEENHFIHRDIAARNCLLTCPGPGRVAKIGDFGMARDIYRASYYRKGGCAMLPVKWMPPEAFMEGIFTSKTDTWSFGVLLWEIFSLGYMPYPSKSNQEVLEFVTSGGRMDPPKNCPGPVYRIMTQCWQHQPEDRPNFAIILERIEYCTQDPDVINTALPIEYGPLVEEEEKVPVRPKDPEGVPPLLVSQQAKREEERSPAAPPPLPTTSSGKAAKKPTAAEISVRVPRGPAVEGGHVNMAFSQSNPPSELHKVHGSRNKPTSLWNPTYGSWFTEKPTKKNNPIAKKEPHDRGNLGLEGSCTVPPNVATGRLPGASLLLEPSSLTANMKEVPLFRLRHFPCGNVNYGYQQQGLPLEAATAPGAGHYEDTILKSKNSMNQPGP

ASK1 = ASK1 (Homo sapiens, UniProt Q99683); assay: KINOMEscan: ASK1; format: binding; conditions: 1000 nM, read-out: Percent Control
CDC2L2 = CDC2L2 (Homo sapiens, UniProt Q9UQ88); assay: KINOMEscan: CDC2L2; format: binding; conditions: 1000 nM, read-out: Percent Control
CLK2 = CLK2 (Homo sapiens, UniProt P49760); assay: KINOMEscan: CLK2; format: binding; conditions: 1000 nM, read-out: Percent Control
CLK2, sequence (P49760 whole entry): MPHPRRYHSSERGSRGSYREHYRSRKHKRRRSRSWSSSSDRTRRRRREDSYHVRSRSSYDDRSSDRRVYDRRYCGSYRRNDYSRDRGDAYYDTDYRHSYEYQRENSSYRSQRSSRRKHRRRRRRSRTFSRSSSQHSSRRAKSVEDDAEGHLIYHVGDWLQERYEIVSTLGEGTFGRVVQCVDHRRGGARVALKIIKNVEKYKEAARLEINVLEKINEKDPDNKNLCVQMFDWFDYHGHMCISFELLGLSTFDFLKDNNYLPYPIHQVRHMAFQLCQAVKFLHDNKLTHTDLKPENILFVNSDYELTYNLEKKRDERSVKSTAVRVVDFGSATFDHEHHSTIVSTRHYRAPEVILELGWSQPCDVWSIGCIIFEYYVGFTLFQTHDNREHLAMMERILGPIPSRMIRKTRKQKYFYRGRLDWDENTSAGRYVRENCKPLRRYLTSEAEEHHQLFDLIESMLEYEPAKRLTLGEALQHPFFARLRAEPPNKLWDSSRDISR

CSK = CSK (Homo sapiens, UniProt P41240); assay: KINOMEscan: CSK; format: binding; conditions: 1000 nM, read-out: Percent Control
CSNK1E = CSNK1E (Homo sapiens, UniProt P49674); assay: KINOMEscan: CSNK1E; format: binding; conditions: 1000 nM, read-out: Percent Control
CSNK1G1 = CSNK1G1 (Homo sapiens, UniProt Q9HCP0); assay: KINOMEscan: CSNK1G1; format: binding; conditions: 1000 nM, read-out: Percent Control
CSNK2A2 = CSNK2A2 (Homo sapiens, UniProt P19784); assay: KINOMEscan: CSNK2A2; format: binding; conditions: 1000 nM, read-out: Percent Control
CSNK2A2, sequence (P19784 whole entry): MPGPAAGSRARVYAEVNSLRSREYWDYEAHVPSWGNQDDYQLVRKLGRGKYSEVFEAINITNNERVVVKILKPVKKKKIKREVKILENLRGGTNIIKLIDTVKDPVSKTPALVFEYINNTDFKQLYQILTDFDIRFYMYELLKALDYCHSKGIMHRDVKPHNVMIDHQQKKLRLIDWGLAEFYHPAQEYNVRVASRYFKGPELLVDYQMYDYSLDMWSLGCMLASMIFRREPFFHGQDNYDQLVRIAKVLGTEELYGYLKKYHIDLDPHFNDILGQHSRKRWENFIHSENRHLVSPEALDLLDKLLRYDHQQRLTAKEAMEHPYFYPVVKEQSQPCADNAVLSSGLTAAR

CTK = CTK (Homo sapiens, UniProt P42679); assay: KINOMEscan: CTK; format: binding; conditions: 1000 nM, read-out: Percent Control
DCAMKL1 = DCAMKL1 (Homo sapiens, UniProt O15075); assay: KINOMEscan: DCAMKL1; format: binding; conditions: 1000 nM, read-out: Percent Control
DCAMKL1, sequence (O15075 whole entry): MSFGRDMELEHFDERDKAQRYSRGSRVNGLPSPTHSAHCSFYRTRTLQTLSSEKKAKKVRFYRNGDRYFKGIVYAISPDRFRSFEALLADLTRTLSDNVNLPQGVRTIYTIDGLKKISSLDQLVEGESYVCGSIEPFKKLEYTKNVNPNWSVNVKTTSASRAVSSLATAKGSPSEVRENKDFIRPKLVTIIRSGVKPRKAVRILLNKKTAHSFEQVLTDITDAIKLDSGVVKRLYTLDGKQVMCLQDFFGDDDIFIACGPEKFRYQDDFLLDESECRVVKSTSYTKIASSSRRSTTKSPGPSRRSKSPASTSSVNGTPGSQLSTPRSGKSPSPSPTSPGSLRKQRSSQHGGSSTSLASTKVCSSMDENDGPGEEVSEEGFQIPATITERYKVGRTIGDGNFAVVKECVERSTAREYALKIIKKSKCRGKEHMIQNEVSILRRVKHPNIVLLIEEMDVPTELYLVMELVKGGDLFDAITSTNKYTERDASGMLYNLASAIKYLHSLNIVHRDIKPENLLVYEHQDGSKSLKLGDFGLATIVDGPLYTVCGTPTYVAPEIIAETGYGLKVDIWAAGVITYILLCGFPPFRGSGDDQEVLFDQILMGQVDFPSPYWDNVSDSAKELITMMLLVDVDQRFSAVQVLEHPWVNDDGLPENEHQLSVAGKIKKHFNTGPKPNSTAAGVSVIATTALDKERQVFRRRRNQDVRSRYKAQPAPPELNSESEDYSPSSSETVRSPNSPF

DMPK = DMPK (Homo sapiens, UniProt Q09013); assay: KINOMEscan: DMPK; format: binding; conditions: 1000 nM, read-out: Percent Control
EGFR(L858R) = EGFR(L858R) (Homo sapiens, UniProt P00533, L858R); assay: KINOMEscan: EGFR(L858R); format: binding; conditions: 1000 nM, read-out: Percent Control
EPHA1 = EPHA1 (Homo sapiens, UniProt P21709); assay: KINOMEscan: EPHA1; format: binding; conditions: 1000 nM, read-out: Percent Control
EPHA6 = EPHA6 (Homo sapiens, UniProt Q9UF33); assay: KINOMEscan: EPHA6; format: binding; conditions: 1000 nM, read-out: Percent Control
ERBB4 = ERBB4 (Homo sapiens, UniProt Q15303); assay: KINOMEscan: ERBB4; format: binding; conditions: 1000 nM, read-out: Percent Control
FGFR2 = FGFR2 (Homo sapiens, UniProt P21802); assay: KINOMEscan: FGFR2; format: binding; conditions: 1000 nM, read-out: Percent Control
FGFR3(G697C) = FGFR3(G697C) (Homo sapiens, UniProt P22607, G697C); assay: KINOMEscan: FGFR3(G697C); format: binding; conditions: 1000 nM, read-out: Percent Control
FGFR3(G697C), sequence (P22607 23-806 G697C): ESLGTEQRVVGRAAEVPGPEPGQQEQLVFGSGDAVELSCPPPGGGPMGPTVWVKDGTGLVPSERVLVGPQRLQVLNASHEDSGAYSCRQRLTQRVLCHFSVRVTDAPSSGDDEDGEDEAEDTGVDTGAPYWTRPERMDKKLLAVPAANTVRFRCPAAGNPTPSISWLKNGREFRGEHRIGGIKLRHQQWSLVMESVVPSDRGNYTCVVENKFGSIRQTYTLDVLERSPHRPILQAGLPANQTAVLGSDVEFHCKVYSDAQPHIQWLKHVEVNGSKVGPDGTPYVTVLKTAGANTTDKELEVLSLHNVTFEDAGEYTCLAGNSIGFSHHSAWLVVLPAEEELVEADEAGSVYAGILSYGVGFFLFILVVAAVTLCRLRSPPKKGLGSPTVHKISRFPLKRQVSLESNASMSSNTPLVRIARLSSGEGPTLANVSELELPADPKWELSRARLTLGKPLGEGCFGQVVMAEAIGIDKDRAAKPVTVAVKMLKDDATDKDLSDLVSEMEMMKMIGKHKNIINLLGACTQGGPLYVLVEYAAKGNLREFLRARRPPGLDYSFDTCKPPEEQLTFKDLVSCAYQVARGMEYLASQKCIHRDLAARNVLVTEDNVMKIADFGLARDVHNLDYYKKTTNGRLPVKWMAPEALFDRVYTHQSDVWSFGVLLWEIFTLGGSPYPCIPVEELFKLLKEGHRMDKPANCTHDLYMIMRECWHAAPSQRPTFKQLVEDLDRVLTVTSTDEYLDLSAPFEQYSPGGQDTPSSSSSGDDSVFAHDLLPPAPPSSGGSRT

FLT3(ITD) = assay: KINOMEscan: FLT3(ITD); format: binding, human; conditions: 1000 nM
FLT3(N841I) = FLT3(N841I) (Homo sapiens, UniProt P36888, N841I); assay: KINOMEscan: FLT3(N841I); format: binding; conditions: 1000 nM, read-out: Percent Control
HUNK = HUNK (Homo sapiens, UniProt P57058); assay: KINOMEscan: HUNK; format: binding; conditions: 1000 nM, read-out: Percent Control
HUNK, sequence (P57058 whole entry): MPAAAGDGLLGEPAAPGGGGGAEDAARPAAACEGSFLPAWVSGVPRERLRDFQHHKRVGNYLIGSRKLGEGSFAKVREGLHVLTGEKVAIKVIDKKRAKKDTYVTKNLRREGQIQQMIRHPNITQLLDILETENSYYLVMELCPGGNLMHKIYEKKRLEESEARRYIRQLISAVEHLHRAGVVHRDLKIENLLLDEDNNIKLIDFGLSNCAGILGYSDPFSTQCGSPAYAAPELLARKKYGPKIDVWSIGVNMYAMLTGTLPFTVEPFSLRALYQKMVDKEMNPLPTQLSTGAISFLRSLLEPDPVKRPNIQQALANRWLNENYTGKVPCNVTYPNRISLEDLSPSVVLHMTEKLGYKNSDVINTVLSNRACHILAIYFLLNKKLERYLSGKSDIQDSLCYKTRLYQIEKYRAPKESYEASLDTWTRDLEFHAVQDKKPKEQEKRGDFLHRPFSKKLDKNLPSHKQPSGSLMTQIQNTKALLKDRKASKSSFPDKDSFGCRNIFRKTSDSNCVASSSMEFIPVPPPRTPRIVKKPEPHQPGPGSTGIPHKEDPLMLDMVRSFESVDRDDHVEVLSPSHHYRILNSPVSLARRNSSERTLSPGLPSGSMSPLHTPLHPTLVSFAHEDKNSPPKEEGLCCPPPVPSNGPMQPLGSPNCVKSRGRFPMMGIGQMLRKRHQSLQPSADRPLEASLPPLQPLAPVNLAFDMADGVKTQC

IRAK3 = IRAK3 (Homo sapiens, UniProt Q9Y616); assay: KINOMEscan: IRAK3; format: binding; conditions: 1000 nM, read-out: Percent Control
LYN = LYN (Homo sapiens, UniProt P07948); assay: KINOMEscan: LYN; format: binding; conditions: 1000 nM, read-out: Percent Control
MAP3K2 = MAP3K2 (Homo sapiens, UniProt Q9Y2U5); assay: KINOMEscan: MAP3K2; format: binding; conditions: 1000 nM, read-out: Percent Control
MAP3K3 = MAP3K3 (Homo sapiens, UniProt Q99759); assay: KINOMEscan: MAP3K3; format: binding; conditions: 1000 nM, read-out: Percent Control
MARK4 = MARK4 (Homo sapiens, UniProt Q96L34); assay: KINOMEscan: MARK4; format: binding; conditions: 1000 nM, read-out: Percent Control
MET(Y1235D) = MET(Y1235D) (Homo sapiens, UniProt P08581, Y1235D); assay: KINOMEscan: MET(Y1235D); format: binding; conditions: 1000 nM, read-out: Percent Control
MRCKA = MRCKA (Homo sapiens, UniProt Q5VT25); assay: KINOMEscan: MRCKA; format: binding; conditions: 1000 nM, read-out: Percent Control
MTOR = MTOR (Homo sapiens, UniProt P42345); assay: KINOMEscan: MTOR; format: binding; conditions: 1000 nM, read-out: Percent Control

For `COc1cc(F)ccc1-c1cc(Nc2cc(CS(C)(=N)=O)ccn2)ncc1F` (stereo not drawn) [VIP152], the “potency versus the other inhibitors” value [1] was “higher potency”, the inhibition at 10 µM (Histamine H1) was 1% and the inhibition at 10 µM (Melatonin MT1) was 6%. For the same compound, the inhibition at 10 µM (Opiate δ1 (OP1, DOP)) was 9%, the inhibition at 10 µM (Prostanoid EP4) was 24% and the “% Inh.” value (Rolipram) was 1%. For the same compound, the remaining binding at 0.1 µM (SGK3) was 100%, the remaining binding at 0.1 µM (SRMS) was 98% and the remaining binding at 0.1 µM (TEC) was 100%. For the same compound, the remaining binding at 0.1 µM (TNK1) was 100%, the remaining binding at 0.1 µM [2] was 100% and the remaining binding at 0.1 µM (VRK2) was 97%. For the same compound, the remaining binding at 0.1 µM (WNK3) was 95%, the remaining binding at 0.1 µM (YANK1) was 100% and the remaining binding at 1 µM (ALK(C1156Y)) was 71%. For the same compound, the remaining binding at 1 µM (ASK1) was 97%, the remaining binding at 1 µM (CDC2L2) was 78% and the remaining binding at 1 µM (CLK2) was 82%. It also gave a remaining binding at 1 µM (CSK) of 92%, a remaining binding at 1 µM (CSNK1E) of 89% and a remaining binding at 1 µM (CSNK1G1) of 91%. The remaining binding at 1 µM (CSNK2A2) was 69%, the remaining binding at 1 µM (CTK) was 84% and the remaining binding at 1 µM (DCAMKL1) was 86%. It also gave a remaining binding at 1 µM (DMPK) of 62%, a remaining binding at 1 µM (EGFR(L858R)) of 76% and a remaining binding at 1 µM (EPHA1) of 78%. The remaining binding at 1 µM (EPHA6) was 90%, the remaining binding at 1 µM (ERBB4) was 88% and the remaining binding at 1 µM (FGFR2) was 70%. The remaining binding at 1 µM (FGFR3(G697C)) was 63%, the “Percent Control” value (FLT3(ITD)) was 87% and the remaining binding at 1 µM (FLT3(N841I)) was 54%. It also gave a remaining binding at 1 µM (HUNK) of 100%, a remaining binding at 1 µM (IRAK3) of 52% and a remaining binding at 1 µM (LYN) of 90%. It also gave a remaining binding at 1 µM (MAP3K2) of 57%, a remaining binding at 1 µM (MAP3K3) of 86% and a remaining binding at 1 µM (MARK4) of 88%. The remaining binding at 1 µM (MET(Y1235D)) was 19%, the remaining binding at 1 µM (MRCKA) was 82% and the remaining binding at 1 µM (MTOR) was 100%.
